Measured values reported in patent US11324725B2, “Compositions and methods for the inhibition of pruritus” (The United States of America, as represented by the …, priority 2017, dated 2022).

Molecular target: T1, mNpr1 (Mus musculus, UniProt P18293)
T1 construct: host or cells: HEK-293, transient co-transfection with pGS-40F
T1 sequence (P18293 29-1057): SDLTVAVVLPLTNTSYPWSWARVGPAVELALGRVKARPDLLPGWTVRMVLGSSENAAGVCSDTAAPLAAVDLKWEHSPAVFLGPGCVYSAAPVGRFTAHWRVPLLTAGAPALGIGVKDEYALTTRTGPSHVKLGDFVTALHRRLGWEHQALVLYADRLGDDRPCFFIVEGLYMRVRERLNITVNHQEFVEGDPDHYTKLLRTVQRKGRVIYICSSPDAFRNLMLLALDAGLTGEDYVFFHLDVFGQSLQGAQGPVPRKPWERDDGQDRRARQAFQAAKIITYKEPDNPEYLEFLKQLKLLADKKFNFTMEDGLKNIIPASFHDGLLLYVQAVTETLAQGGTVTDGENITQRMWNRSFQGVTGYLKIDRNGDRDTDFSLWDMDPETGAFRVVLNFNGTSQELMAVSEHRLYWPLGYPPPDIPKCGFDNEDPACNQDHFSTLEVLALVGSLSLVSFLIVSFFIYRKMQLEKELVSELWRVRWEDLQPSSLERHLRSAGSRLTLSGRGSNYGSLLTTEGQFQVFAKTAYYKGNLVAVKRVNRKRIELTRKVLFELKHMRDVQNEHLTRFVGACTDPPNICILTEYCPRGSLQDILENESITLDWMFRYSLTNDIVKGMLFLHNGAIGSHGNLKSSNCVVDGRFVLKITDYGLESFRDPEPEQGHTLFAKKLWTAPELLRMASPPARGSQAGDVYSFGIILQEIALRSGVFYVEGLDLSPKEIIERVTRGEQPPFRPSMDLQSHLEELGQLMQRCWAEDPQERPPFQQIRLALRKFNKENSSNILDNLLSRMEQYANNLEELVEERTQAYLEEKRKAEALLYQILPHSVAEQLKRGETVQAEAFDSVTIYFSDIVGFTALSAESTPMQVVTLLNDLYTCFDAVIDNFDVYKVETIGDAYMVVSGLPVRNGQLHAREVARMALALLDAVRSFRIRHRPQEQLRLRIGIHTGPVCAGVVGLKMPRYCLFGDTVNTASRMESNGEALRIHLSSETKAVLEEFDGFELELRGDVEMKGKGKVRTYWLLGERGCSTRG
Assay: GloSensor assay, HEK-293 cells transiently expressing mNpr1 and pGS-40F
Assay type: cell-based
Settings: for IC50: 1 nM mNppb 5 minutes after compound, read-out: IC50 [μM] (mean ± SEM), mNpr1; for Ki: calculated with Cheng-Prusoff equation from Table 6, read-out: Ki mNpr1 GloSensor™ [μM] (mean ± SEM)
Procedure: HEK-293 cells (American Type Culture Collection “ATTC,” Manassas, Va.) were cultured in DMEM/F12 supplemented with 2 mM L-glutamine, 10% FBS, 100 U/ml penicillin, and 100 μg/ml streptomycin. For transient expression, 8×10^5 cells were seeded in 6-wells, cultured for 24 hours, and then transfected using TransIT®-293 (Mirus, Madison, Wis.) according to the manufacturer's instructions. After transfection (48 hours), cells were used to measure intracellular cGMP production. HEK-293 cell clones stably expressing pGloSensor™-40F alone (HEK-cGMP-sensor cells) or in addition, human Npr1 (“hNpr1”) (HEK-hNpr1-cGMP-sensor cells) or human Npr2 (HEK-hNpr2-cGMP-sensor cells) were generated by co-transfection with pEAK8-GFP and selection with 1 μg/ml puromycin. Stable expression of transgenes was verified by measuring ligand-induced cGMP production with the cGMP biosensor.
Before the measurement (24 hours in advance), 3×10^4 cells were seeded into white 96-well plates (PerkinElmer, Waltham, Mass.), coated with 0.1% poly(D-lysine), and assays conducted as recommended by the manufacturer (Promega). Medium was aspirated and cells were loaded for two hours at room temperature with 2% GoSensor™ reagent diluted in CO2-independent media (ThermoFisher) supplemented with 2 mM L-glutamine and 10% FBS (assay medium). Luminescence was measured on a BioTek Synergy™ NEO (Winooski, Vt.) plate reader at room temperature. After a baseline measurement of 3-5 minutes, assay medium as a control or assay medium with agonist was manually added, and luminescence was measured for 30 minutes at ˜ 1/60 Hz. For compounds tested for Npr1 and Npr2 inhibition, the compounds were added after baseline measurements, and luminescence was read for 5 minutes before addition of agonist. Luminescence was then normalized to baseline measurements and plotted against the time. Ligand-induced changes of cGMP production were quantified by determining the area under the curve. To determine efficacy and potency of agonists, ligand-induced changes were normalized to medium only addition and plotted against the ligand concentration. […] To quantify […] of compounds, compound-induced changes of agonist-induced cGMP production were normalized to vehicle controls, plotted against compound concentration, and fit with a four-parameter logistic regression. Effects of A-71915 on basal mNpr1 activity were fitted with a bell-shaped regression (equation indicated below).
Because the Npr1 receptor is a ligand-dependent guanylate cyclase, measuring agonist-induced changes in intracellular cGMP levels was used to examine inhibition of Npr1. To measure the production of cGMP by Npr1, a circular permutated Firefly luciferase molecule which was functionally linked to the cGMP binding domain of human PDE5 (GloSensor™ technology pGS-40F) was used, as described in Example 1. This reporter molecule together with a luciferase substrate (GoSensor™ reagent) and a sensitive method for detection of luciferase activity (emitted light) permitted real-time measurement of cGMP levels in live cells (FIG. 1A). The cGMP sensor was expressed in HEK293 cells and luciferase activity after stimulation with the NO-donor sodium nitroprusside (SNP), which activates ubiquitously expressed soluble guanylate cyclases, was examined. […] Next, mNpr1 and the cGMP sensor were transiently expressed in HEK293 cells and agonist dependent receptor activation was examined. […] Next, the effects of A-71915 on mNpr1 were tested.
For Table 6, HEK-293 cells transiently expressing mNpr1 and pGS-40F were stimulated with 1 nM mNppb 5 minutes after addition of candidate compounds or A-71915 and luminescence was measured for 30 minutes. Inhibitors were titrated to calculate apparent IC50 values, as described in methods.

## COc1ccccc1-c1n[nH]c2ncc(C(=O)NCc3cccnc3)nc12 [JS-6, 3-(2-methoxyphenyl)-N-(pyridin-3-ylmethyl)-1H-pyrazolo[3,4-b]pyrazine-5-carboxamide]
  IC50: 82 ± 68 µM
  Ki: 1.69 ± 1.39 µM

## Cc1nn2c(c1-c1ccccc1OCc1ccccc1)N(C(=O)Cc1ccc3c(c1)OCO3)CCC2 [JS-8, 2-(benzo[d][1,3]dioxol-5-yl)-1-(3-(2-(benzyloxy)phenyl)-2-methyl-6,7-dihydropyrazolo[1,5-a]pyrimidin-4(5H)-yl)ethan-1-one]
  IC50: 4.7 ± 0.3 µM
  Ki: 0.1 ± 0.006 µM

## Cc1nn2c(c1-c1ccccc1Oc1ccccc1)N(C(=O)Cc1ccc3c(c1)OCO3)CCC2 [JS-10, 2-(benzo[d][1,3]dioxol-5-yl)-1-(2-methyl-3-(2-phenoxyphenyl)-6,7-dihydropyrazolo[1,5-a]pyrimidin-4(5H)-yl)ethan-1-one]
  IC50: 15 ± 1.8 µM
  Ki: 0.31 ± 0.037 µM

## N#Cc1ccccc1CN1CCCC(C(=O)NCc2ccccc2)CCNC(=O)CC1 (stereo not shown) [JS-13, N-benzyl-1-(2-cyanobenzyl)-4-oxo-1,5-diazacycloundecane-8-carboxamide]
  IC50: 10 ± 2.2 µM
  Ki: 0.21 ± 0.046 µM

## CCC(CC)c1cc([C@H]2CN3CC[C@H]2C[C@@H]3CNS(=O)(=O)c2cccs2)nc(-c2ccncc2)n1 [JS-3, N-(((2R,4S,5R)-5-(6-(pentan-3-yl)-2-(pyridin-4-yl)pyrimidin-4-yl)quinuclidin-2-yl)methyl)thiophene-2-sulfonamide]
  IC50: 12 ± 1.8 µM
  Ki: 0.25 ± 0.036 µM

## Cc1nn2c(c1-c1ccccc1OCc1ccccc1)N(C(=O)Cc1ccccn1)CCC2 [JS-9, 1-(3-(2-(benzyloxy)phenyl)-2-methyl-6,7-dihydropyrazolo[1,5-a]pyrimidin-4(5H)-yl)-2-(pyridin-2-yl)ethan-1-one]
  IC50: 28 µM
  Ki: 0.57 ± 0.0004 µM

## Cc1noc(C)c1-c1cc(-c2ccccc2Oc2ccccc2)cn2cncc12 [JS-5, 3,5-dimethyl-4-(6-(2-phenoxyphenyl)imidazo[1,5-a]pyridin-8-yl)isoxazole]
  IC50: 20 ± 12 µM
  Ki: 0.42 ± 0.265 µM

## COc1cc(CN2CCC(C)(NC(C)=O)CC2)cc(-c2ccncc2)c1 [JS-4, N-(1-(3-methoxy-5-(pyridin-4-yl)benzyl)-4-methylpiperidin-4-yl)acetamide]
  IC50: 11 ± 3.4 µM
  Ki: 0.22 ± 0.07 µM

## COc1ccc(C2(C(=O)N3CCC4(CC3)c3nccn3-c3ccccc3CN4C)CC2)cc1 [JS-12, (1-(4-methoxyphenyl)cyclopropyl)(5-methyl-5,6-dihydrospiro[benzo[f]imidazo[1,2-a][1,4]diazepine-4,4′-piperidin]-1′-yl)methanone]
  IC50: 13 ± 0.3 µM
  Ki: 0.26 ± 0.006 µM

## Cc1cc(CNC(=O)c2ccc3c(c2)n(CC2CC2)c(=O)n3C2CCCCC2)on1 [JS-11, 1-cyclohexyl-3-(cyclopropylmethyl)-N-((3-methylisoxazol-5-yl)methyl)-2-oxo-2,3-dihydro-1H-benzo[d]imidazole-5-carboxamide]
  IC50: 4.9 ± 1.5 µM
  Ki: 0.1 ± 0.03 µM

## CN(Cc1ccccc1)C(=O)c1cn2ccnc(-c3ccccc3)c2n1 [JS-14, N-benzyl-N-methyl-8-phenylimidazo[1,2-a]pyrazine-2-carboxamide]
  IC50: 15.8 ± 16 µM
  Ki: 0.32 ± 0.329 µM
